Test results from patent publication US4068074A, “Cephalosporin derivatives having at the 3-position of the cephem ring a heterocyclic thiomethyl group with a carboxy or sulfo group and at the 7-position of the cephem ring an α-heterocylic acylaminophenyl-acetamide group” (priority 1974, dated 1978).
Converted amounts (≈) assume the structure as drawn. Where two headings read alike, the source gives them in different places.

Key:
Assay type in all cases: cell-based
[1] = tested on: Proteus vulgaris 0X 19US; assay: MIC against bacteria (Table I), strain (2); settings: 0X19US
From the text: (§1) Now, for illustrating the excellent pharmacological effects of the compounds of this invention, the values of MIC (γ/ml.) of the compounds against various bacteria are shown in Table 1, in which the compounds of this invention used are shown by example numbers.
(2) Proteus vulgaris 0X 19US

[2] = tested on: Proteus mirabilis IXM OM-19; assay: MIC against bacteria (Table I), strain (3); settings: IXMOM19; (3) Proteus mirabilis IXM OM-19; read-out: MIC
From the text: as §1
(3) Proteus mirabilis IXM OM-19

[3] = tested on: Pseudomonas aeruginosa 99 (Gentamycin resistant); assay: MIC against bacteria (Table I), strain (5)
From the text: as §1
(5) Pseudomonas aeruginosa 99 (Gentamycin resistant)

[4] = tested on: Psuedomonas ovalis IMA 1002; assay: MIC against bacteria (Table I), strain (6); settings: (6) Psuedomonas ovalis IMA 1002; read-out: MIC
From the text: as §1
(6) Psuedomonas ovalis IMA 1002

[5] = tested on: Escherichia coli kauffmann 0-1; assay: MIC against bacteria (Table I), strain (7)
From the text: as §1
(7) Escherichia coli kauffmann 0-1

[6] = tested on: Klebsiella pneumoniae ATCC 10031; assay: MIC against bacteria (Table I), strain (8); settings: ATCC10031
From the text: as §1
(8) Klebsiella pneumoniae ATCC 10031

[7] = tested on: Salmonella typhi H901 W; assay: MIC against bacteria (Table I), strain (9); settings: Salmonella enterica, TYPHI
From the text: as §1
(9) Salmonella typhi H901 W

[8] = tested on: Salmonella enteritidis; assay: MIC against bacteria (Table I), strain (10); settings: Salmonella enterica; (10) Salmonella enteritidis; read-out: MIC
From the text: as §1
(10) Salmonella enteritidis

[9] = tested on: Shigella flexneri 2a 1675; assay: MIC against bacteria (Table I), strain (11); settings: 2A1675; (11) Shigella flexneri 2a 1675; read-out: MIC
From the text: as §1

[10] = tested on: Shigella sonnei II 37148; assay: MIC against bacteria (Table I), strain (12); settings: II37148; (12) Shigella sonnei II 37148; read-out: MIC
From the text: as §1

[11] = tested on: Bacillus megatherium 10778; assay: MIC against bacteria (Table I), strain (13); settings: (13) Bacillus megatherium 10778; read-out: MIC
From the text: as §1

[12] = tested on: Bacillus subtilis ATCC 6633; assay: MIC against bacteria (Table I), strain (14); settings: ATCC6633; (14) Bacillus subtilis ATCC 6633; read-out: MIC
From the text: as §1
(14) Bacillus subtilis ATCC 6633

[13] = tested on: Micrococcus flavus ATCC 10240; assay: MIC against bacteria (Table I), strain (15); settings: ATCC10240
From the text: as §1
(15) Micrococcus flavus ATCC 10240

[14] = tested on: Staphylococcus aureus 209P; assay: MIC against bacteria (Table I), strain (16)
From the text: as §1
(16) Staphylococcus aureus 209P

[15] = tested on: Staphylococcus Shimanishi; assay: MIC against bacteria (Table I), strain (17)
From the text: as §1
(17) Staphylococcus Shimanishi

[16] = tested on: Staphylococcus Onuma; assay: MIC against bacteria (Table I), strain (18)
From the text: as §1
(18) Staphylococcus Onuma

[17] = (2) Proteus vulgaris 0X 19US, read-out: MIC
[18] = (5) Pseudomonas aeruginosa 99 (Gentamycin resistant), read-out: MIC
[19] = (8) Klebsiella pneumoniae ATCC 10031, read-out: MIC
[20] = (15) Micrococcus flavus ATCC 10240, read-out: MIC
[21] = (17) Staphylococcus Shimanishi, read-out: MIC
[22] = (18) Staphylococcus Onuma, read-out: MIC
[23] = (16) Staphylococcus aureus 209P, read-out: MIC

SMILES | MIC [1, 17] [µg/mL] | MIC [2] [µg/mL] | MIC [3, 18] [µg/mL] | MIC [4] [µg/mL] | MIC ([5]; Escherichia coli) [µg/mL] | MIC ([6]; Klebsiella pneumoniae) [µg/mL] | MIC [7] [µg/mL] | MIC [8] [µg/mL] | MIC [9] [µg/mL] | MIC [10] [µg/mL] | MIC [11] [µg/mL] | MIC [12] [µg/mL] | MIC ([13]; Micrococcus flavus) [µg/mL] | MIC ([14]; Staphylococcus aureus, 209P) [µg/mL] | MIC ([15]; Staphylococcus) [µg/mL] | MIC ([16]; Staphylococcus) [µg/mL] | MIC [6, 19] [µg/mL] | MIC [13, 20] [µg/mL] | MIC [15, 21] [µg/mL] | MIC [16, 22] [µg/mL] | other results
Cc1nc(SCC(=O)O)cc(SCC2=C(C(=O)O)N3C(=O)[C@@H](NC(=O)[C@H](NC(=O)c4cnccc4O)c4ccccc4)[C@H]3SC2)n1 [Example 17, 7-[D-α-(4-hydroxynicotinoylamido)-α-phenylacetamido]-3-(6-carboxymethylthio-2-methylpyrimidin-4-yl)thiomethyl-Δ^3-cephem-4-carboxylic acid] | 1.56 (≈ 2.28 µM) | 0.19 (≈ 0.278 µM) | 50 (≈ 73.2 µM) | 25 (≈ 36.6 µM) | 6.25 (≈ 9.15 µM) | 6.25 (≈ 9.15 µM) | 3.13 (≈ 4.58 µM) | 0.19 (≈ 0.278 µM) | 3.13 (≈ 4.58 µM) | 6.25 (≈ 9.15 µM) | 0.39 (≈ 0.571 µM) | 0.39 (≈ 0.571 µM) | 6.25 (≈ 9.15 µM) | 0.19 (≈ 0.278 µM) | 6.25 (≈ 9.15 µM) | 6.25 (≈ 9.15 µM) | – | – | – | – | –
O=C(O)Cn1nc(SCC2=C(C(=O)O)N3C(=O)[C@@H](NC(=O)[C@H](NC(=O)c4cnccc4O)c4ccccc4)[C@H]3SC2)ccc1=O [Example 18, 7-[D-α-(4-hydroxynicotinoylamido)-α-phenylacetamido]-3-(1-carboxymethyl-6(1H)-pyridazinon-3-yl)thiomethyl-Δ^3-cephem-4-carboxylic acid] | 1.56 (≈ 2.39 µM) | 0.78 (≈ 1.2 µM) | 25 (≈ 38.3 µM) | 25 (≈ 38.3 µM) | 12.5 (≈ 19.2 µM) | – | 3.13 (≈ 4.8 µM) | 1.56 (≈ 2.39 µM) | 12.5 (≈ 19.2 µM) | 25 (≈ 38.3 µM) | 0.39 (≈ 0.598 µM) | 0.39 (≈ 0.598 µM) | – | 1.56 (≈ 2.39 µM) | – | – | 25 (≈ 38.3 µM) | 25 (≈ 38.3 µM) | 6.25 (≈ 9.58 µM) | 6.25 (≈ 9.58 µM) | –
Nc1nc(SCC(=O)O)cc(SCC2=C(C(=O)O)N3C(=O)[C@@H](NC(=O)[C@H](NC(=O)c4cnccc4O)c4ccccc4)[C@H]3SC2)n1 [Example 19, 7-[D-α-(4-hydroxynicotinoylamido)-α-phenylacetamido]-3-(2-amino-4-carboxymethylthiopyrimidin-6-yl)thiomethyl-Δ^3-cephem-4-carboxylic acid] | – | 0.39 (≈ 0.57 µM) | – | 50 (≈ 73.1 µM) | – | 25 (≈ 36.6 µM) | 3.13 (≈ 4.58 µM) | 1.56 (≈ 2.28 µM) | 6.25 (≈ 9.14 µM) | 25 (≈ 36.6 µM) | 0.78 (≈ 1.14 µM) | 0.78 (≈ 1.14 µM) | – | 3.13 (≈ 4.58 µM) | – | – | – | 12.5 (≈ 18.3 µM) | 12.5 (≈ 18.3 µM) | 12.5 (≈ 18.3 µM) | MIC ([1]; Proteus vulgaris): 6.25 µg/mL (≈ 9.14 µM); MIC ([5]; (7) Escherichia coli kauffmann 0-1, read-out: MIC): 12.5 µg/mL (≈ 18.3 µM)
Cc1ncc(C(=O)N[C@@H](C(=O)N[C@@H]2C(=O)N3C(C(=O)O)=C(CSc4nnc(SCC(=O)O)s4)CS[C@H]23)c2ccccc2)c(O)n1 [Example 20, 7-[D-α-(4-hydroxy-2-methylpyrimidin-5-ylcarboxamido)-α-phenylacetamido]-3-(5-carboxymethylthio-1,3,4-thiadiazol-2-yl)thiomethyl-Δ^3-cephem-4-carboxylic acid] | < 0.09 | 0.39 (≈ 0.565 µM) | 25 (≈ 36.2 µM) | 50 (≈ 72.5 µM) | 12.5 (≈ 18.1 µM) | – | 12.5 (≈ 18.1 µM) | 3.13 (≈ 4.54 µM) | 6.25 (≈ 9.06 µM) | 12.5 (≈ 18.1 µM) | 1.56 (≈ 2.26 µM) | 3.13 (≈ 4.54 µM) | 6.25 (≈ 9.06 µM) | – | 12.5 (≈ 18.1 µM) | 12.5 (≈ 18.1 µM) | 25 (≈ 36.2 µM) | – | – | – | MIC [14, 23]: 3.13 µg/mL (≈ 4.54 µM)
COc1cc(O)ncc1C(=O)N[C@@H](C(=O)N[C@@H]1C(=O)N2C(C(=O)O)=C(CSc3nnc(SCC(=O)O)s3)CS[C@H]12)c1ccccc1 [Example 28, 7-[D-α-(6-hydroxy-4-methoxynicotinoylamido)-α-phenylacetamido]-3-(5-carboxymethylthio-1,3,4-thiadiazol-2-yl)thiomethyl-Δ^3-cephem-4-carboxylic acid] | 12.5 (≈ 17.7 µM) | 6.25 (≈ 8.87 µM) | – | 50 (≈ 70.9 µM) | 25 (≈ 35.5 µM) | – | 50 (≈ 70.9 µM) | 12.5 (≈ 17.7 µM) | 25 (≈ 35.5 µM) | 25 (≈ 35.5 µM) | 6.25 (≈ 8.87 µM) | 12.5 (≈ 17.7 µM) | – | – | – | – | 50 (≈ 70.9 µM) | 12.5 (≈ 17.7 µM) | 100 (≈ 142 µM) | 100 (≈ 142 µM) | MIC ([3]; Pseudomonas aeruginosa): 25 µg/mL (≈ 35.5 µM); MIC [14, 23]: 12.5 µg/mL (≈ 17.7 µM)
